These results are taken from US7449447B2, “Peptidomimetic NS3-serine protease inhibitors of hepatitis C virus” (priority 2003, dated 2008).

The target in one test is T1, HCV NS3/NS4a serine protease (Hepatitis C virus genotype 1b, UniProt P26663).
T1 construct: amino terminus of the NS3 protease domain (amino acids 3-181) with a tetrapeptide linker; made in house; host or cells: E. coli
T1 sequence (P26663 1013-1207, looked up, natural form): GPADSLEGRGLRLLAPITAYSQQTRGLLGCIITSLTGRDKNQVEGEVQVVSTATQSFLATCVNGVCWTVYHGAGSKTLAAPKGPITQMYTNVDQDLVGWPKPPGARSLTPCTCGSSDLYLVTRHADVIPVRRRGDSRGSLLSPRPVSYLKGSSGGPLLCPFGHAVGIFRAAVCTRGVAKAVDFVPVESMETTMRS
Briefly: Spectrophotometric assay for HCV protease inhibitory activity (chromogenic ester substrates). The test is classed as biochemical, hepatitis C virus (strain 1b). The following applies: Ki Rating, Table 2; single chain NS4A21-32-GSGS-NS3 3-181 protease, 30° C., pH 6.5. As to the method: Spectrophotometric Assay: Spectrophotometric assays for the HCV serine protease were performed on the inventive compounds by following the procedure described by R. Zhang et al., Analytical Biochemistry, 270 (1999) 268-275, the disclosure of which is incorporated herein by reference. The assay based on the proteolysis of chromogenic ester substrates is suitable for the continuous monitoring of HCV NS3 protease activity.
HCV NS3 protease (strain 1b) and its NS4A cofactor were constructed as a recombinant single chain protein. The NS4A cofactor domain (amino acid residues 21-32) was fused in frame to the amino terminus of the NS3 protease domain (amino acids 3-181) with a tetrapeptide linker. This NS4A 21-32-GSGS-NS33-181 construct was then expressed in E. coli and purified to >90% homogeneity. Kinetic parameters were determined and found to be the same as that of the full length NS31-631/NS4A1-54 protein complex produced in the baculovirus system (D. L. Sali et al, Biochemistry, 37 (1998) 3392-340). The details of the cloning, expression, purification and kinetic analysis of the of the single chain recombinant protease have been previously described (S. S. Taremi, et al. Protein Science. 7 (1998) 2143-2149.
Protein concentrations were determined by the Biorad dye method using recombinant HCV protease standards previously quantified by amino acid analysis. Prior to assay initiation, the enzyme storage buffer (50 mM sodium phosphate pH 8.0, 300 mM NaCl, 10% glycerol, 0.05% lauryl maltoside and 10 mM DTT) was exchanged for the assay buffer (25 mM MOPS pH 6.5, 300 mM NaCl, 10% glycerol, 0.05% lauryl maltoside, 5 μM EDTA and 5 μM DTT) utilizing a Biorad Bio-Spin P-6 prepacked column.
Protease Assay: HCV protease assays were performed at 30° C. using a 200 μl reaction mix in a 96-well microtiter plate. Assay buffer conditions (25 mM MOPS pH 6.5, 300 mM NaCl, 10% glycerol, 0.05% lauryl maltoside, 5 μM EDTA and 5 μM DTT) were optimized for the NS3/NS4A heterodimer (D. L. Sali et al, ibid.)). Typically, 100 μl mixtures of buffer, substrate and inhibitor were placed in wells and allowed to preincubate at 30° C. for approximately 3 minutes. One hundred μls of pre-warmed protease (30° C.) in assay buffer, was then used to initiate the reaction to produce a final concentration of 1.3 nM HCV). The Substrate cleavage by the protease was monitored over 60 minutes by measuring the release of the phenylazophenol (PAP) product at an absorbance of 370 nm with a continuous read every 30 seconds using a SpectraMax Plus microtiter plate reader (Molecular Devices, Sunnyvale, Calif.). Background hydrolysis of the substrate was subtracted. Inhibitors were tested over a range of concentrations (final DMSO concentration 4%)
Evaluation of Inhibitors The inhibition constants (Ki) for the competitive inhibitors were determined experimentally at fixed concentrations of enzyme and substrate by plotting vo/vi vs. inhibitor concentration ([I]o) according to the rearranged Michaelis-Menten equation for competitive inhibition kinetics: vo/vi=1+[I]o/(Ki(1+[S]o/Km)), where vo is the uninhibited initial velocity, vi is the initial velocity in the presence of inhibitor at any given inhibitor concentration ([I]o) and [S]o is the substrate concentration used. The resulting data were fitted using linear regression and the resulting slope, 1/(Ki(1+[S]o/Km), was used to calculate the Ki value.
One may read the Ki as the dissociation constant of the complex between target and ligand, obtained from inhibition or displacement. As for `CC(C)[C@H](NC(=O)N[C@H](C(=O)N1C[C@H]2[C@@H]([C@H]1C(=O)N[C@@H](CC(F)F)C(=O)NCCc1ccc(C(N)=O)cc1)C2(C)C)C(C)(C)C)C(=O)O` [Example 124], the inhibition constant (Ki) was in the range of 100 to 500 nM.
On to `CC(C)[C@H](NC(=O)N[C@H](C(=O)N1C[C@H]2[C@@H]([C@H]1C(=O)N[C@@H](CC(F)F)C(=O)NCCc1ccc(C(=O)O)cc1)C2(C)C)C(C)(C)C)C(=O)OC(C)(C)C` [Example 125], for which the inhibitory constant (Ki) fell in the range of 100 to 500 nM.
For the molecule `CC(C)[C@H](NC(=O)N[C@H](C(=O)N1C[C@H]2[C@@H]([C@H]1C(=O)N[C@@H](CC(F)F)C(=O)NCCc1ccc(C(N)=O)cc1)C2(C)C)C(C)(C)C)C(=O)OC(C)(C)C` [Example 126], the inhibition constant (Ki) is 100 to 500 nM.
Regarding `CC(C)(C)OC(=O)[C@@H](NC(=O)N[C@H](C(=O)N1C[C@H]2[C@@H]([C@H]1C(=O)N[C@@H](CC(F)F)C(=O)NCCc1ccc(C(=O)O)cc1)C2(C)C)C(C)(C)C)C(C)(C)C` [Example 127], the inhibition constant Ki lay within 100 to 500 nM.
For `CN(C[C@@H](NC(=O)N[C@H](C(=O)N1C[C@H]2[C@@H]([C@H]1C(=O)NC(CC(F)F)C(=O)NCCc1ccc(C(N)=O)cc1)C2(C)C)C(C)(C)C)C(C)(C)C)S(C)(=O)=O` (some centres unmarked) [Example 128], the Ki was in the range of 100 to 500 nM.
For the molecule `CC(C)[C@H](NC(=O)N[C@H](C(=O)N1C[C@H]2[C@@H]([C@H]1C(=O)NC(CC(F)F)C(=O)NCCc1ccc(C(=O)O)cc1)C2(C)C)C(C)(C)C)C(=O)OC(C)(C)C` (some centres unmarked) [Example 129], the inhibition constant Ki is 100 to 500 nM.
`COC(=O)c1ccc(CCNC(=O)[C@H](CC(F)F)NC(=O)[C@@H]2[C@@H]3[C@H](CN2C(=O)[C@@H](NC(=O)N[C@H](CNS(=O)(=O)c2ccccc2)C(C)C)C(C)(C)C)C3(C)C)cc1` [Example 130]: the Ki was in the range of 100 to 500 nM.
`CC(C)[C@H](NC(=O)N[C@H](C(=O)N1C[C@H]2[C@@H]([C@H]1C(=O)N[C@@H](CC(F)F)C(=O)NCCc1ccc(C(=O)N(C)C)cc1)C2(C)C)C(C)(C)C)C(=O)O` [Example 131]: the inhibitory constant (Ki) is 100 to 500 nM.
Take `CC(C)[C@H](NC(=O)N[C@H](C(=O)N1C[C@H]2[C@@H]([C@H]1C(=O)N[C@@H](CC(F)F)C(=O)NCCc1ccc(C(=O)O)cc1)C2(C)C)C(C)(C)C)C(=O)c1ccccc1` [Example 132]: the Ki was in the range of 100 to 500 nM.
The same measure, in the same setting: then `COC(=O)c1ccc(CCNC(=O)[C@H](CC(F)F)NC(=O)[C@@H]2[C@@H]3[C@H](CN2C(=O)[C@@H](NC(=O)N[C@H](C(=O)OC(C)(C)C)C(C)C)C(C)(C)C)C3(C)C)cc1` [Example 133], with 100 to 500 nM.
Regarding `COC(=O)c1ccc(CCNC(=O)[C@H](CC(F)F)NC(=O)[C@@H]2[C@@H]3[C@H](CN2C(=O)[C@@H](NC(=O)N[C@H](C(=O)c2ccccc2)C(C)C)C(C)(C)C)C3(C)C)cc1` [Example 134], the inhibition constant (Ki) lay within 100 to 500 nM.
As to `CC(C)(C)[C@H](NC(=O)NC1(CS(C)(=O)=O)CCCCC1)C(=O)N1C[C@H]2[C@@H](C1C(=O)NC(CC(F)F)C(=O)NCCc1ccc(C(N)=O)cc1)C2(C)C` (some centres unmarked) [Example 135], the inhibition constant Ki was 100 to 500 nM.
Still for that read-out and setting: in the case of `CC(C)[C@H](NC(=O)N[C@H](C(=O)N1C[C@H]2[C@@H]([C@H]1C(=O)NC(CC(F)F)C(=O)NCCc1ccccc1)C2(C)C)C(C)(C)C)C(=O)O` (some centres unmarked) [Example 136] it was 100 to 500 nM.

The same test, now with this note: Ki, Table 1; single chain NS4A21-32-GSGS-NS3 3-181 protease, 30° C., pH 6.5.
As for `COC(=O)c1ccc(CCNC(=O)[C@H](CC(F)F)NC(=O)[C@@H]2C3C(CN2C(=O)[C@@H](NC(=O)N[C@H](CN(C)S(C)(=O)=O)C(C)(C)C)C2CCCCC2)C3(C)C)cc1` (some centres unmarked) [Example 101], the Ki came out at 11 nM.
Consider `CC(C)(C)[C@H](NC(=O)N[C@H](CN1CCCS1(=O)=O)C(C)(C)C)C(=O)N1C[C@H]2[C@@H](C1C(=O)NC(CC(F)F)C(=O)NCCc1ccc(C(=O)O)cc1Cl)C2(C)C` (some centres unmarked) [Example 102], for which the inhibition constant Ki was found to be 21 nM.
With `COC(=O)c1ccc(CCNC(=O)[C@H](CC(F)F)NC(=O)[C@@H]2[C@@H]3[C@H](CN2C(=O)[C@@H](NC(=O)N[C@H](CN(C)S(C)(=O)=O)C(C)(C)C)C(C)(C)C)C3(C)C)cc1` [Example 103], the inhibition constant Ki turned out to be 22 nM.
Still for that read-out and setting: then `CN(C[C@@H](NC(=O)N[C@H](C(=O)N1C[C@H]2[C@@H](C1C(=O)NC(CC(F)F)C(=O)NCCc1ccc(C(=O)O)cc1)C2(C)C)C(C)(C)C)C(C)(C)C)S(C)(=O)=O` (some centres unmarked) [Example 104], with 24 nM; and `COC(=O)c1ccc(CCNC(=O)[C@H](CC(F)F)NC(=O)[C@@H]2[C@@H]3[C@H](CN2C(=O)[C@@H](NC(=O)N[C@H](CN(C)S(C)(=O)=O)C(C)(C)C)C(C)(C)C)C3(C)C)c(Cl)c1` [Example 105], with 24 nM; and `CN(C[C@@H](NC(=O)N[C@H](C(=O)N1C[C@H]2[C@@H](C1C(=O)N[C@@H](CC(F)F)C(=O)NCCc1ccc(C(N)=O)cc1)C2(C)C)C(C)(C)C)C(C)(C)C)S(C)(=O)=O` (some centres unmarked) [Example 106], with 27 nM.
Take `CC(C)(C)[C@H](NC(=O)NC1(CS(C)(=O)=O)CCCCC1)C(=O)N1C[C@H]2[C@@H](C1C(=O)N[C@@H](CC(F)F)C(=O)NCCc1ccc(C(=O)O)cc1)C2(C)C` (some centres unmarked) [Example 107]: the Ki was 29 nM.
With `COC(=O)c1ccc(CCNC(=O)[C@H](CC(F)F)NC(=O)[C@@H]2[C@@H]3[C@H](CN2C(=O)[C@@H](NC(=O)N[C@H](CN2CCCS2(=O)=O)C(C)(C)C)C(C)(C)C)C3(C)C)c(Cl)c1` [Example 108], the Ki came to 30 nM.
Regarding `CC(C)(C)[C@H](NC(=O)NC1(CS(C)(=O)=O)CCCCC1)C(=O)N1C[C@H]2[C@@H](C1C(=O)NC(CC(F)F)C(=O)NCCc1ccc(C(N)=O)cc1)C2(C)C` (some centres unmarked) [Example 109], the Ki turned out to be 38 nM.
Same read-out and setting: in the case of `COC(=O)c1ccc(CCNC(=O)[C@H](CC(F)F)NC(=O)[C@@H]2[C@@H]3[C@H](CN2C(=O)[C@@H](NC(=O)NC2(CS(C)(=O)=O)CCCCC2)C(C)(C)C)C3(C)C)cc1` [Example 110] it was 40 nM; in that of `CC(C)(C)[C@H](NC(=O)N[C@H](CN1CCCS1(=O)=O)C(C)(C)C)C(=O)N1C[C@H]2[C@@H](C1C(=O)NC(CC(F)F)C(=O)NCCc1ccc(C(N)=O)cc1Cl)C2(C)C` (some centres unmarked) [Example 111], 42 nM; in that of `CC(C)[C@@H](CN(C)S(=O)(=O)c1ccccc1)NC(=O)N[C@H](C(=O)N1C[C@H]2[C@@H]([C@H]1C(=O)N[C@@H](CC(F)F)C(=O)NCCc1ccc(C(=O)O)cc1)C2(C)C)C(C)(C)C` [Example 112], 50 nM.
The same measure, in the same setting: in the case of `CC(C)[C@H](NC(=O)N[C@H](C(=O)N1C[C@H]2[C@@H]([C@H]1C(=O)N[C@@H](CC(F)F)C(=O)NCCc1ccc(C(=O)O)cc1)C2(C)C)C(C)(C)C)C(=O)O` [Example 113] it was 90 nM; in that of `CC(C)(C)[C@H](NC(=O)N[C@H](C(=O)N1C[C@H]2[C@@H]([C@H]1C(=O)N[C@@H](CC(F)F)C(=O)NCCc1ccc(C(=O)O)cc1)C2(C)C)C(C)(C)C)C(=O)O` [Example 114], 90 nM; in that of `CC(C)[C@@H](CNS(=O)(=O)c1ccccc1)NC(=O)N[C@H](C(=O)N1C[C@H]2[C@@H]([C@H]1C(=O)N[C@@H](CC(F)F)C(=O)NCCc1ccc(C(=O)O)cc1)C2(C)C)C(C)(C)C` [Example 115], 90 nM.
The same measure, in the same setting: then `COC(=O)c1ccc(CCNC(=O)[C@H](CC(F)F)NC(=O)[C@@H]2[C@@H]3[C@H](CN2C(=O)[C@@H](NC(=O)N[C@H](CN(C)S(=O)(=O)c2ccccc2)C(C)C)C(C)(C)C)C3(C)C)cc1` [Example 116], with 100 nM.
